Experimental data as given in ChEMBL document CHEMBL1201862, “PubChem BioAssay data set” (2004).
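The compound was tested at five concentrations on cells cultured in 96-well plates, with a 48-hour exposure period. GI50: concentration for 50% inhibition of growth.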 Activity calls are given as the source filed them. Rule as the data show it: active = GI50 up to about 1.1 µM and inactive = higher.

What was measured:
Assay in all cases: DTP human tumour cell line panel, 48 h
A549 = tested on: A549
CAKI-1 = tested on: CAKI-1
EKVX = tested on: EKVX
HL-60 = tested on: HL-60
HT-29 = tested on: HT-29
K562 = tested on: K562
M14 = tested on: M14
MDA-N = tested on: MDA-N
Malme-3M = tested on: Malme-3M
OVCAR-4 = tested on: OVCAR-4
OVCAR-8 = tested on: OVCAR-8
PC-3 = tested on: PC-3
RPMI-8226 = tested on: RPMI-8226
SF-268 = tested on: SF-268
SK-MEL-28 = tested on: SK-MEL-28
U-251 = tested on: U-251
NCI-H226 = tested on: NCI-H226
OVCAR-3 = tested on: OVCAR-3
HCC 2998 = tested on: HCC 2998

Row | SMILES | GI50 (A549) | GI50 (CAKI-1) | GI50 (EKVX) | GI50 (HL-60) | GI50 (HT-29) | GI50 (K562) | GI50 (M14) | GI50 (MDA-N) | GI50 (Malme-3M) | GI50 (OVCAR-4) | GI50 (OVCAR-8) | GI50 (PC-3) | GI50 (RPMI-8226) | GI50 (SF-268) | GI50 (SK-MEL-28) | GI50 (U-251) | GI50 (NCI-H226) | GI50 (OVCAR-3) | GI50 (HCC 2998)
1 | C[C@]12C(=O)C=CCC1=CC[C@@H]1[C@@H]2[C@H]2CC3(O)C(=O)O[C@@]4(C)[C@H]5C[C@@]6(C)[C@@H]7[C@@]2(O)[C@]1(OC[C@H]6C(=O)O5)O[C@]734 (some centres not stated) | > 100 µM (inactive) | 40.7 µM (inactive) | 43.9 µM (inactive) | 17.5 µM (inactive) | 40.1 µM (inactive) | 38.2 µM (inactive) | 28.8 µM (inactive) | 37.9 µM (inactive) | 74.8 µM (inactive) | 54.3 µM (inactive) | 28.4 µM (inactive) | 41.9 µM (inactive) | 34.8 µM (inactive) | 37.1 µM (inactive) | 28.4 µM (inactive) | 34.6 µM (inactive) | – | – | –
2 | O=C(CN1CCOCC1)c1ccc2[nH]c(=O)oc2c1 | – | > 100 µM (inactive) | > 100 µM (inactive) | > 100 µM (inactive) | > 100 µM (inactive) | > 100 µM (inactive) | > 100 µM (inactive) | > 100 µM (inactive) | > 100 µM (inactive) | – | > 100 µM (inactive) | > 100 µM (inactive) | > 100 µM (inactive) | > 100 µM (inactive) | > 100 µM (inactive) | > 100 µM (inactive) | > 100 µM (inactive) | > 100 µM (inactive) | –
3 | COc1cc(OCCN(C)C)c2[nH]c(C(=O)N3CC(CCl)c4c3cc(N)c3ccccc43)cc2c1 (configuration not stated) | < 0.01 µM (active) | < 0.01 µM (active) | < 0.01 µM (active) | – | < 0.01 µM (active) | – | < 0.01 µM (active) | < 0.01 µM (active) | < 0.01 µM (active) | < 0.018 µM (active) | < 0.01 µM (active) | < 0.01 µM (active) | < 0.01 µM (active) | < 0.01 µM (active) | < 0.01 µM (active) | < 0.01 µM (active) | < 0.01 µM (active) | < 0.01 µM (active) | < 0.01 µM (active)
4 | O=c1n(/N=C/c2ccccc2)c(=O)n2n1C1C=CC2CC1 | > 100 µM (inactive) | > 100 µM (inactive) | > 100 µM (inactive) | > 100 µM (inactive) | > 100 µM (inactive) | > 100 µM (inactive) | > 100 µM (inactive) | > 100 µM (inactive) | – | – | > 100 µM (inactive) | > 100 µM (inactive) | > 100 µM (inactive) | > 100 µM (inactive) | > 100 µM (inactive) | > 100 µM (inactive) | > 100 µM (inactive) | > 100 µM (inactive) | –
5 | O=[N+]([O-])c1ccc(N/N=C2\C=CCCC2)c([N+](=O)[O-])c1 | > 100 µM (inactive) | > 100 µM (inactive) | > 100 µM (inactive) | > 100 µM (inactive) | > 100 µM (inactive) | > 100 µM (inactive) | > 100 µM (inactive) | > 100 µM (inactive) | > 100 µM (inactive) | > 100 µM (inactive) | > 100 µM (inactive) | > 100 µM (inactive) | > 100 µM (inactive) | > 100 µM (inactive) | > 100 µM (inactive) | > 100 µM (inactive) | > 100 µM (inactive) | > 100 µM (inactive) | –
6 | CC12CC(C/C1=N/O)C(C)(C)C2 (configuration not stated) | > 100 µM (inactive) | > 100 µM (inactive) | > 100 µM (inactive) | > 100 µM (inactive) | > 100 µM (inactive) | > 100 µM (inactive) | > 100 µM (inactive) | > 100 µM (inactive) | > 100 µM (inactive) | > 100 µM (inactive) | > 100 µM (inactive) | > 100 µM (inactive) | – | > 100 µM (inactive) | > 100 µM (inactive) | > 100 µM (inactive) | > 100 µM (inactive) | > 100 µM (inactive) | > 100 µM (inactive)
7 | COc1ccc2c(c1O)C13CCN(C)C(C2)C1CCC1(C3)OCCO1 (configuration not stated) | > 100 µM (inactive) | > 100 µM (inactive) | > 100 µM (inactive) | – | > 100 µM (inactive) | – | > 100 µM (inactive) | > 100 µM (inactive) | > 100 µM (inactive) | > 100 µM (inactive) | > 100 µM (inactive) | > 100 µM (inactive) | > 100 µM (inactive) | > 100 µM (inactive) | > 100 µM (inactive) | > 100 µM (inactive) | > 100 µM (inactive) | > 100 µM (inactive) | > 100 µM (inactive)
8 | Cc1nn(CNc2ccc(F)c(Cl)c2)c(=S)n1/N=C/c1ccc(-c2ccc(Cl)cc2Cl)o1 | – | 16.8 µM (inactive) | 16.4 µM (inactive) | 1.44 µM (inactive) | 19.6 µM (inactive) | 1.49 µM (inactive) | 18.7 µM (inactive) | 17.7 µM (inactive) | – | 20.1 µM (inactive) | 20.8 µM (inactive) | 16.4 µM (inactive) | 14.8 µM (inactive) | 16.3 µM (inactive) | 19.7 µM (inactive) | 14.7 µM (inactive) | 17.2 µM (inactive) | 17.3 µM (inactive) | –
9 | CC1(C)CC[C@]2(C)CC=C3[C@]4(C)CC[C@H]5C(C)(C)C(=O)CC[C@]5(C)[C@H]4CC[C@@]3(C)[C@H]2C1 | > 100 µM (inactive) | > 100 µM (inactive) | > 100 µM (inactive) | – | > 100 µM (inactive) | – | > 100 µM (inactive) | > 100 µM (inactive) | > 100 µM (inactive) | > 100 µM (inactive) | > 100 µM (inactive) | > 100 µM (inactive) | > 100 µM (inactive) | > 100 µM (inactive) | > 100 µM (inactive) | > 100 µM (inactive) | > 100 µM (inactive) | > 100 µM (inactive) | > 100 µM (inactive)
10 | Cn1cco/c1=N/c1ccc(Cl)c(Cl)c1 | > 10 µM (inactive) | > 10 µM (inactive) | > 10 µM (inactive) | – | > 10 µM (inactive) | > 10 µM (inactive) | > 10 µM (inactive) | > 10 µM (inactive) | > 10 µM (inactive) | > 10 µM (inactive) | > 10 µM (inactive) | > 10 µM (inactive) | > 10 µM (inactive) | > 10 µM (inactive) | > 10 µM (inactive) | > 10 µM (inactive) | > 10 µM (inactive) | > 10 µM (inactive) | > 10 µM (inactive)
11 | COc1ccc(-c2[nH]c3c4c(nc5c(c24)C(=O)CC(C)(C)C5)CC(C)(C)C3)cc1 | 62.4 µM (inactive) | 70.5 µM (inactive) | 47.3 µM (inactive) | 55.1 µM (inactive) | 43.9 µM (inactive) | 28.4 µM (inactive) | > 100 µM (inactive) | 47.4 µM (inactive) | > 100 µM (inactive) | 68.5 µM (inactive) | 52.6 µM (inactive) | 24.3 µM (inactive) | – | 95.5 µM (inactive) | > 100 µM (inactive) | 48.9 µM (inactive) | 68.7 µM (inactive) | 47.3 µM (inactive) | 55.6 µM (inactive)
